From patent US20260256922A1, “PRODRUGS USEFUL FOR REDUCING ANTHRACYCLINE CARDIOTOXICITY” (WAKE FOREST UNIVERSITY HEALTH SCIENCES, priority 2022, published 2026)

Columns and labels:
H9C2 cardiomyoblasts [1] = details: H9C2, 10 and 20 μM, 24 or 48 h; difference not significant at 48 h
Method: Cytotoxicity of DOX and prodrugs in H9C2 cardiomyoblasts. Media from cells exposed for 24 or 48 h to 10 or 20 µM of c1, c2, DOX or vehicle (DMSO, final concentration 0.1% in all samples) was centrifuged to remove cells and cell debris, and supernatants were assessed spectrophotometrically by lactose dehydrogenase (LDH) assay to evaluate release into the media as a measure of cytotoxicity (n=6 or more). *, p<0.05; **, p<0.01; ***, p<0.001; ****, p<0.0001.
Cytotoxicity of c1, c2 and DOX was evaluated by measuring the release of lactate dehydrogenase (LDH) into the culture medium over time.
H9C2 and 4T1 cells were plated at a density of 10,000 per well in 96-well plates. Twenty-four h after plating, cells were treated with 10 or 20 µM DOX (from 20 mM stock dissolved in DMSO, for 0.1% final DMSO) and were incubated for 24 or 48 h. The extracellular medium was centrifuged at 12,000×g for 5 min to pellet cellular debris, and the supernatants were assessed for release of lactate dehydrogenase (LDH) using a colorimetric activity assay (Invitrogen) as directed and spectral detection (Benchmark or BioRad microplate reader). Values were used to determine % cytotoxicity as described in the kit, using treatment with lysis buffer to release all LDH into the medium (defining 100% release) or cells without treatment (to define 0% release).

Nrf2 = Nrf2 and HO-1 immunoblots in H9C2 cells; type: cell-based, rat; details: H9C2, relative to DMSO vehicle
Description: The bar graphs below represent the mean±SEM. Results were statistically different between c1 and DOX in both cases (p=0.002 and p=0.019), and more marginally so between c1 and DMSO (p=0.011 and p.=0.025), for Nrf2 and HO-1, respectively.

caspase-3 = test: Caspase-3 cleavage immunoblot in H9C2 cells; details: H9C2, 10 or 20 μM, 24 h
Method: FIG. 6. […] H9C2 cells in culture were treated for 24 hr with c1, c2, DOX or vehicle (DMSO), then harvested into lysis buffer and immunoblotted for caspase-3. Data analyzed by ImageJ were used to assess the percent of the two bands present as the lower band.
We next evaluated apoptotic signaling through caspase-3 cleavage at 24 h to compare the experimental compounds.
To evaluate levels of caspase cleavage (using an antibody recognizing both cleaved and uncleaved, Cell Signaling, cat #9662), Nrf2 (antibody from Thermo Fisher, cat #PA5-27882), and HO-1 (antibody from Proteintech, cat #10701-1-AP), H9C2 cells were plated at a density of 450,000 per well in a 24-well plate, then treated 24 h later with 10 or 20 µM DOX and incubated another 24 h before harvesting. For some samples, 100 mM hydroxocobalamin (HO-Cbl) was added 5 min before drug treatment. Cells were harvested by removing media (and recovering any non-adherent cells by centrifugation for 5 min at 10,600×g, discarding the supernatant), and combining that with the 120 μL of lysis buffer added to each well. Lysis buffer [50 mM Tris-HCl at pH 8.0, with 100 mM NaCl, 100 µM diethylene triamine pentaacetic acid (DTPA), 20 mM β-glycerophosphate, 0.1% SDS, 0.5% Na Desoxycholate, and 0.5% Triton-X-100] was prepared by freshly adding protease and phosphatase inhibitors before use (1 mM PMSF, 10 μg/mL aprotinin, 1 mM Na3VO4, 10 mM NaF and 10 μg/mL leupeptin). Samples were further incubated on ice for 30 min, then centrifuged at high speed (20,800×g for 10 min) to remove cell debris, and supernatants were mixed with 5×SDS protein sample buffer for Western blot analysis following resolution of 40 μg per sample on 10% SDS-polyacrylamide gels. Protein concentrations of supernatants were determined using a BCA assay (Pierce). Antibodies were used at dilutions of 1:1000 (for HO-1 and caspase-3) or 1:3000 (for Nrf2).

[2] = Time-dependent DOX release from prodrugs in presence of H2O2 (LCMS); type: physicochemical; details: prodrug 10 μM, H2O2 10 μM, ammonium bicarbonate buffer 0.1 M pH 7.4
Method: FIG. 1. Time-course for DOX release from prodrugs (10 μM) in ammonium bicarbonate buffer (0.1 M, pH 7.4) at room temperature and in the presence of H2O2 (10 μM). A calibration curve was used to determine the concentration of free DOX at each time point by LCMS. Plotted as the mean±standard error of the mean (SEM) from three independent experiments.
To confirm this reactivity, we incubated c1 (10 μM) with H2O2 (10 μM) at room temperature in ammonium bicarbonate buffer (0.1 M, pH 7.4). At various time points, an aliquot was removed and analyzed by LCMS. Using a calibration curve, we determined the percentage of released DOX over the course of two hours. […] For comparison, we also assessed the reactivity of c2 towards the same concentration of peroxides. Like c1, c2 also functioned as an H2O2-activated DOX prodrug, but with faster kinetics, as quantitative release of free DOX was realized within 60 min.
A stock solution of c1 (or c2, 10 mM) in DMSO and H2O2 (10 mM) in ammonium bicarbonate buffer (0.1M, pH 7.4) were prepared immediately prior to use. […] At various time points (0 min, 10 min, 35 min, 60 min, 80 min, 100 min, 120 min), a 1 mL (inject volume 60 μL) aliquot was removed and analyzed by LC-MS (using a C18 analytical column and eluting at 0.4 mL/min with a linear gradient (20-90% v/v) MeOH/H2O (0-2 min), followed by 90% v/v MeOH/H2O (2-19 min)). […]

H9C2 cardiomyoblasts [3] = test: Uptake into H9C2 cardiomyoblasts by live-cell confocal microscopy; type: cell-based, rat; details: imaging over 18 h
Method: FIG. 4. Uptake of DOX and prodrugs c1 and c2 by H9C2 cardiomyoblasts. H9C2 cells cultures grown overnight on chambered coverslips in media with 10% serum were switched to Fluorobrite DMEM imaging media supplemented with 5% serum and prepared for live-cell imaging on a Zeiss LSM 880 confocal microscope, then 10 µM of c1, c2, or DOX was added and images were taken every 10 min (averaged every 30 min) for 18 h. Approximately 20 cells present in each field of view were averaged for each sample and time point; normalized and averaged data from two replicates each±SEM were included for c1 and DOX. An earlier independent trial yielded very similar results (Fig. S1).
Uptake of DOX and prodrugs into H9C2 cardiomyoblasts. Before comparing the biological effects of treatments by DOX and prodrugs, it was important to know their time dependence of accumulation into the H9C2 cardiomyoblasts under investigation. For this, confocal microscopy of live cells in culture was used to track in real time the accumulation of the fluorescent molecules into the cells, allowing direct comparisons between c1, c2 and Dox. […] Thus, any biological effects observed using c1 rather than DOX will not be due to limited cellular uptake.
To evaluate drug uptake, H9C2 cells were plated at a density of 20,000 per well on 24 well #1.5 polymer chambered coverslips (Ibidi) in media including 10% FBS and allowed to adhere for ~20 h. Prior to imaging analysis, the media was replaced with Fluorobrite DMEM imaging media (Gibco) supplemented with 5% FBS. To 1 mL of media in each well was added either vehicle (DMSO), or a 20 mM stock solution of c1, c2, or DOX to give final concentrations of 10 or 20 µM drug and 0.1% DMSO. […] DOX and the prodrugs were detected with excitation by a 458 nm laser at 0.3% and emission from 535-648 nm.
Each position consisted of a 3 slice z-stack that was compressed with a maximum intensity projection for analysis. […] The mean intensity for both channels was calculated, normalized, and then averaged to 30 min time points.

| SMILES | cytotoxicity (LDH release) (H9C2 cardiomyoblasts [1]) | HO-1 expression (immunoblot) (Nrf2) | caspase-3 cleavage (caspase-3) | time to quantitative release of free DOX [2] | accumulation in cells compared with DOX (H9C2 cardiomyoblasts [3]) |
| --- | --- | --- | --- | --- | --- |
| COc1cccc2c1C(=O)c1c(O)c3c(c(O)c1C2=O)C[C@@](O)(C(=O)CO)C[C@@H]3O[C@H]1C[C@H](N)[C@H](O)[C@H](C)O1 [DOX, Doxorubicin, reference compound] | more toxic than c1 | completely suppressed both | – | – | – |
| COc1cccc2c1C(=O)c1c(O)c3c(c(O)c1C2=O)C[C@@](O)(C(=O)CO)C[C@@H]3O[C@H]1C[C@H](NC(=O)OCc2ccc(B3OC(C)(C)C(C)(C)O3)cc2)[C@H](O)[C@H](C)O1 [c2] | intermediate toxicity but more similar to DOX than c1 | – | neither c1 nor c2 at either 10 or 20 UM caused notable caspase-3 cleavage | ≤ 60 min | as slow as or slower than Dox |
